Measurements as given in publication PMC3304000 (Bioorganic & medicinal chemistry, 2012).
Converted amounts (≈) assume the structure as drawn. “And” between values parts separate entries of the source, which are not always exact repeats. Equal values may be shown once.

What was measured:
Assay in all cases: microbe, parasite or virus in culture
Assay type in all cases: cell-based
Conditions in all cases: Mycobacterium tuberculosis
[1] = tested on: MDR-TB resistant to HRERb
[2] = tested on: MDR-TB resistant to HREKP
[3] = tested on: XDR-TB resistant to HREKO
[4] = tested on: XDR-TB resistant to HRESKO
[5] = tested on: MDR-TB resistant to HREZSKP
[6] = MDR-TB resistant to HRERb, value in parentheses
[7] = MDR-TB resistant to HRERb (isoniazid, rifampin, ethambutol, rifabutin)

Structure (SMILES)	MIC [1, 6] [µg/mL]	MIC [2]	MIC [3] [µg/mL]	MIC [4] [µg/mL]	MIC [5]	MIC [1, 7] [µM]
O=C(OCc1ccccc1)c1coc(-c2ccccc2)n1 [Compound 2]	2.5	0.3 µg/mL (≈ 1.07 µM)	2.5 (≈ 8.95 µM)	1.25 (≈ 4.48 µM)	2.5 µg/mL (≈ 8.95 µM)	–
O=C(OCc1ccccc1)c1csc(-c2ccccc2)n1 [Compound 5]	10	1.25 µg/mL (≈ 4.23 µM)	5 (≈ 16.9 µM)	5 (≈ 16.9 µM)	10 µg/mL (≈ 33.9 µM)	–
Cc1ccn2c(C(=O)OCc3ccccc3)c(C)nc2c1 [Compound 11, benzyl 2,7-dimethylimidazo[1,2-a]pyridine-3-carboxylate]	0.16	< 0.01 µg/mL	< 0.01	< 0.01	< 0.01 µg/mL	0.6
O=[N+]([O-])c1cn2c(n1)OC[C@@H](OCc1ccc(OC(F)(F)F)cc1)C2 [PA-824, reference compound]	0.16 to 0.31	0.45 µM to 0.86 µM and 0.16 µg/mL to 0.31 µg/mL	0.08 (≈ 0.223 µM)	0.31 (≈ 0.863 µM)	0.45 µM to 0.86 µM and 0.16 µg/mL to 0.31 µg/mL	0.45 to 0.86
